# Experimental data taken from patent US12397037B2, “Methods and compositions for immunomodulation” (CHILDREN'S MEDICAL CENTER CORPORATION, priority 2014, dated 2025).
# What was measured:
# VEGF = VEGF protein in conditioned media by ELISA, U87MG cells; format: cell-based, human
# From the text: The VEGF-A (DVE00) ELISA kit was obtained from R&D Systems (Minneapolis, MN). […] Desferrioxamine (DFO) was purchased from Sigma-Aldrich, and the MEK inhibitor (U0126) was purchased from EMD-Millipore (Billerica, MA). pGL4.74 [hRluc/TK] vector (Promega Madison, WI) was used as an internal control in luciferase assay.
# VEGF promoter = VEGF promoter luciferase assay in U87MG cells; format: cell-based, human; conditions: DFO 250 μM, 18 hours
# Experimental: FIGS. 31A-31B depict U87MG cells transiently co-transfected with a full-length human VEGF promoter luciferase plasmid and a pGL4.74 [hRluc/TK] plasmid as an internal control. Cells were treated with SEMA3F (640 ng/ml for 30 minutes) prior to the addition of DFO (250 μM) or the culture of cells in a hypoxia chamber (1% 02). After 18 hours, VEGF promoter luciferase activity was analyzed. FIG. 31C depicts a graph of U87MG cells transiently cotransfected with our VEGF promoter luciferase and pGL4.74 [hRluc/TK] plasmids and with either a pcDNA3.1 empty vector or our constitutively active Akt (2DAkt). The cells were treated with SEMA3F for 30 minutes prior to the addition of DFO. After 18 hours, VEGF promoter luciferase activity was analyzed. FIG. 31D depicts a graph of parental U87MG cells treated with SEMA3F, rapamycin (10 nM), Torin 1 (10 nM) alone or in combination as indicated for 30 minutes prior to the addition of DFO, and culture supernatants were collected after 18 hours; VEGF protein levels were analyzed by ELISA. In each panel data are representative of 3 independent experiments. Bar graphs represent the mean±SD of n=3 experiments performed in triplicate, *, p<0.01 vs. control.
# SEMA3F inhibits hypoxia-induced production of VEGF via the mTOR pathway. The local expression and regulation of VEGF is key to many physiological and pathological processes (40, 41). These findings indicate that SEMA3F can target the transcriptional activation of VEGF via its ability to target mTOR kinase activity (36, 42). To test the effect of SEMA3F on the regulation of VEGF expression, U87MG cells were transfected with a full-length 2.6 kb VEGF promoter-luciferase construct and exposed to the hypoxia mimetic agent desferrioxamine (DFO) or hypoxia (1% 02). […] To test the relative effect of SEMA3F on mTORC1/C2, U87MG cells transiently co-transfected with the 2DAkt construct and the full length VEGF promoter reporter construct, and the cells cultured in the absence or presence of SEMA3F. […] Finally, the effect of SEMA3F on the secretion of VEGF into conditioned media (by ELISA) was determined in the absence or presence of DFO.
# Transfection and Luciferase assay: U87MG cells were transiently transfected with plasmid constructs (pcDNA3.1, WT mTOR, 2DAkt, VEGF luciferase reporter plasmid or pGL4.74 [hRluc/TK]) as indicated using Lipofectamine 2000 reagent (Life Technologies) according to the manufacturer's instructions. After 18 hours, cells were treated as outlined in each experimental design. VEGF promoter activity was analyzed using a Dual-Luciferase Reporter Assay System (Promega), and luciferase activity was normalized by Renilla luciferase as an internal control.
# [1] = tested on: glioblastoma cells and EC; conditions: reference 12; cited from earlier work
# U87MG cells = assay: Western blot of PI-3K/Akt-mTOR and MAPK signaling in U87MG cells; format: cell-based, human; conditions: U87MG cells
# Experimental: U87MG which express NRP-2 were used for this assay.
# To determine the effect of SEMA3F on intracellular signaling responses, levels of phosphokinases in the NRP2-expressing human glioblastoma cell line U87MG were profiled.
# Western blotting: Proteins within each sample were separated by SDS-PAGE and transferred to nitrocellulose membranes. The membranes were blocked with 4% skimmed milk in TBS-T (0.1% Tween 20 in tris-buffered saline [TBS]) for 30 minutes, followed by incubation with the primary antibody. After washing with TBS-T, membranes were incubated with the appropriate horseradish peroxidase-conjugated secondary antibody, and immunoreactivity was detected by using ECL detection reagents.
# [2] = rapamycin alone 10 nM for 90 minutes, vs untreated
structure (smiles),measurement,setting,value
"CC(=O)N(O)CCCCCNC(=O)CCC(=O)N(O)CCCCCNC(=O)CCC(=O)N(O)CCCCCN [DFO, desferrioxamine, reference compound]",increase of VEGF production,"VEGF; DFO, compared to untreated cells",160%
same,induction of VEGF promoter activity,VEGF promoter,16 fold
"Cc1ccc(NC(=O)c2ccc(CN3CCN(C)CC3)cc2)cc1Nc1nccc(-c2cccnc2)n1 [Gleevec, imatinib]",SEMA3-mediated loss of stress fiber formation and motility,[1],abrogates SEMA3-mediated loss of stress fiber formation and motility
CCC(=O)N1CCN(c2ccc(-n3c(=O)ccc4cnc5ccc(-c6cnc7ccccc7c6)cc5c43)cc2C(F)(F)F)CC1 [Torin 1],"VEGF levels, combination of SEMA3F and Torin 1","VEGF; DFO, compared to SEMA3F or Torin 1 alone",slightly (but significantly p<0.05) inhibited VEGF levels
same,DFO-induced VEGF protein secretion,"VEGF; SEMA3F, rapamycin 10 nM or Torin 1 10 nM, 30 minutes prior to DFO, supernatants after 18 hours",significantly reduced
"N#CC(=C(/N)Sc1ccccc1N)/C(C#N)=C(\N)Sc1ccccc1N [U0126, reference compound]",effect of MEK inhibitor on SEMA3F regulation of pAkt,U87MG cells; U0126 10 μM 30 minutes prior to SEMA3F 640 ng/ml,did not modulate
"CO[C@H]1C[C@@H]2CC[C@@H](C)[C@@](O)(O2)C(=O)C(=O)N2CCCC[C@H]2C(=O)O[C@H]([C@H](C)C[C@@H]2CC[C@@H](O)[C@H](OC)C2)CC(=O)[C@H](C)/C=C(\C)[C@@H](O)[C@@H](OC)C(=O)[C@H](C)C[C@H](C)/C=C/C=C/C=C/1C [rapamycin, reference compound]",induction in the level of pAkt (S473),U87MG cells; [2],2.0 fold
same,induction in the level of pAkt (T308),U87MG cells; [2],1.9 fold
